Test results published in US20230312587A1, “PTERIDINONE COMPOUNDS AND USES THEREOF” (Vertex Pharmaceutical Incorporated, priority 2018, published 2023).
Where two headings read alike, the source gives them in different places.

Key:
Hek293 empty vector = assay: In vitro cell viability (CellTiter-Glo), Hek293 empty vector; type: cell-based
Method: HEK293 (ATCC, catalog #CRL-1573) cells are plated in 10 cm dishes (Corning, product #430167) into 10 mL of complete DMEM cell culture media [DMEM (Life Technologies, product #11960-051) media supplemented with 10% FBS (Hyclone, catalog #SH30071.03), antimycotic/antibiotic (Life Technologies, product #15240-062), and Glutamax (Life Technologies, product #35050-061)] at 3×10^6 cells per dish. Cells are allowed to attach and grow overnight at 37° C. in humidified 5% CO2. Cells are co-transfected with pVSV-G, pCMV-Gag/Pol and pCLPCX_WFS1 using Fugene 6 (Promega, catalog #E2691) according to manufacturer's protocol. Separately, cells are co-transfected with pVSV-G, pCMV-Gag/Pol and pCLPCX to produce control retrovirus. Cell culture media containing retrovirus (viral supernatant) is collected at 48 and 72 hours following transfection, filtered through a 0.4 uM filter, and stored at −80° C.
HEK293 cells are plated in 6 well plates (Corning, product #3516) in 2 mL of complete DMEM cell culture media at 1×10^5 cells well and allowed to attach and grow overnight at 37° C. in humidified 5% CO2. The following day, the media is replaced with viral supernatant to which 10 ug/ml of Polybrene® (Santa Cruz Biotech, catalog #sc-134220) is added. Viral supernatant is replaced 24 hours later with complete DMEM media. Transduced cells are selected in complete DMEM cell culture media containing 1 microgram/mL of puromycin (Life Technologies, catalog #A1113803).
HEK293 cells containing empty pCLPCx vector (HEK293 empty), HEK293 cells stably over-expression WFS1 (HEK293 WFS1), HepG2, and HepG2 cells where WFS1 was depleted via CRISPR/Cas9 (HepG2 WFS1 KO) cells were plated into 96-well black plates (Corning, product #3904) in 100 microliters of complete DMEM cell culture media [DMEM (Life Technologies, product #11960-051) media supplemented with 10% FBS (Hyclone, catalog #SH30071.03), antimycotic/antibiotic (Life Technologies, product #15240-062), and Glutamax (Life Technologies, product #35050-061)] at 1,000 (HEK293) or 5,000 (HepG2) cells per well. Cells were allowed to attach and grow overnight, after which compounds are added at various concentrations. Cell viability was assessed 96 hrs after compound addition with CellTiter-Glo reagent (Promega, catalog #G7570) according to manufacturer's protocol and measurement on a Pherastar luminescence plate reader (BMG Labtech).
The IC50s for the viability of both the Hek293 empty vector and WFS1 over-expressing cells are summarized in Table 47: A<0.06 μM; 0.06 μM≤B<0.6 μM; 0.6 μM≤C<3.0 μM; D≥3.0 μM.

[1] = system: β-catenin-TCF-mediated reporter transcription activity in Colo 205 cells; assay: Colo 205 reporter assay (TCF/LEF luciferase); type: cell-based; details: five hours after addition of compound
Outline: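 Luciferase signal from a TCF/LEF-driven reporter, stably integrated in Colo 205 colon cancer cells, was measured 5 h after compound addition.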

[2] = Homo sapiens, HEK293, read-out: Hek293 empty vector viability
[3] = Homo sapiens, COLO 205, 5 h, Colo 205 cells with stably transfected TCF/LEF luciferase reporter, read-out: TCF reporter Colo205
[4] = Homo sapiens, COLO 205, 5 h, Colo 205 TCF/LEF luciferase reporter, read-out: TCF reporter Colo205 IC50
[5] = Hek293 empty vector, read-out: Hek293 empty vector viability
[6] = Colo 205 TCF/LEF luciferase reporter, read-out: TCF reporter Colo205 IC50

Row | IC50 [1, 4] | Compound | IC50 (Hek293 empty vector; [2]) | further results
1 | – | Cc1nc(NCc2cnn(Cc3cc(C(F)(F)F)nn3C)c2)nc2c1NC(=O)[C@H](C(C)C)N2C [Compound 397, (7S)-7-Isopropyl-4,8-dimethyl-2-(((1-((1-methyl-3-(trifluoromethyl)-1H-pyrazol-5-yl)methyl)-1H-pyrazol-4-yl)methyl)amino)-7,8-dihydropteridin-6(5H)-one] | ≥ 3000 nM | IC50 [1, 3]: < 300 nM
2 | 1000 to 5000 nM | Cc1nn(C)cc1Cn1cc(CNc2nc(C)c3c(n2)N(C)[C@@H](C)C(=O)N3)cn1 [Compound 139, (7S)-2-(((1-((1,3-dimethyl-1H-pyrazol-4-yl)methyl)-1H-pyrazol-4-yl)methyl)amino)-4,7,8-trimethyl-7,8-dihydropteridin-6(5H)-one] | ≥ 3000 nM | –
3 | – | (7S)-4,7,8-trimethyl-2-((trans-3-(3,4-difluorophenoxy)cyclobutyl)amino)-7,8-dihydropteridin-6(5H)-one [Compound 251] | – | IC50 (Hek293 empty vector; [5]): ≥ 3000 nM; IC50 [1, 6]: 300 to 1000 nM
4 | < 300 nM | CC[C@H]1C(=O)Nc2cnc(NCc3cnn(Cc4ccc(F)cc4)c3)nc2N1C [Compound 9, (7S)-7-ethyl-2-(((1-(4-fluorobenzyl)-1H-pyrazol-4-yl)methyl)amino)-8-methyl-7,8-dihydropteridin-6(5H)-one] | ≥ 3000 nM | –
5 | < 300 nM | Cc1nc(NCc2cnn(Cc3cc(C(F)(F)F)nn3C)c2)nc2c1NC(=O)[C@H](C)N2C [Compound 160, (7S)-4,7,8-trimethyl-2-(((1-((1-methyl-3-(trifluoromethyl)-1H-pyrazol-5-yl)methyl)-1H-pyrazol-4-yl)methyl)amino)-7,8-dihydropteridin-6(5H)-one] | ≥ 3000 nM | –
6 | < 300 nM | Cc1cc(F)ncc1Cn1cc(CNc2nc(C)c3c(n2)N(C)[C@@H](C)C(=O)N3)cn1 [Compound 94, (7S)-2-(((1-((6-fluoro-4-methylpyridin-3-yl)methyl)-1H-pyrazol-4-yl)methyl)amino)-4,7,8-trimethyl-7,8-dihydropteridin-6(5H)-one] | ≥ 3000 nM | –
7 | < 300 nM | Cc1nc(N[C@H]2C[C@H](Oc3ccnc(C(F)(F)F)c3)C2)nc2c1NC(=O)[C@H](C)N2C [Compound 335, (7S)-4,7,8-trimethyl-2-((trans-3-((2-(trifluoromethyl)pyridin-4-yl)oxy)cyclobutyl)amino)-7,8-dihydropteridin-6(5H)-one] | ≥ 3000 nM | –
8 | < 300 nM | Cc1nc(N[C@H]2C[C@H](Oc3cc(F)c(F)c(F)c3)C2)nc2c1N(C)C(=O)[C@H](C)N2C [Compound 253, (7S)-4,5,7,8-tetramethyl-2-((trans-3-(3,4,5-trifluorophenoxy)cyclobutyl)amino)-7,8-dihydropteridin-6(5H)-one] | ≥ 3000 nM | IC50 (Hek293 empty vector; Homo sapiens, cell viability, Hek293 empty vector, read-out: IC50): 15000 nM; IC50 (Hek293 empty vector; Homo sapiens, cell viability, Hek293 empty vector, read-out: IC50 class): ≥ 3000 nM
9 | 300 to 1000 nM | Cc1nc(NCc2ccc(-n3cc(C(F)(F)F)cn3)nc2)nc2c1NC(=O)[C@H](C)N2C [Compound 143, (S)-4,7,8-trimethyl-2-(((6-(4-(trifluoromethyl)-1H-pyrazol-1-yl)pyridin-3-yl)methyl)amino)-7,8-dihydropteridin-6(5H)-one] | ≥ 3000 nM | –
10 | < 300 nM | Cc1nc(NCc2cnn(Cc3ccc(C(F)(F)F)nc3)c2)nc2c1NC(=O)[C@H](C(C)C)N2C [Compound 383, (7S)-7-isopropyl-4,8-dimethyl-2-(((1-((6-(trifluoromethyl)pyridin-3-yl)methyl)-1H-pyrazol-4-yl)methyl)amino)-7,8-dihydropteridin-6(5H)-one] | ≥ 3000 nM | –
11 | – | Cc1nc(NCc2cnn(Cc3ccc(F)nc3)c2)nc2c1NC(=O)[C@H](C1CC1)N2C [Compound 421, (7S)-7-cyclopropyl-2-(((1-((6-fluoropyridin-3-yl)methyl)-1H-pyrazol-4-yl)methyl)amino)-4,8-dimethyl-7,8-dihydropteridin-6(511)-one] | – | IC50 (Hek293 empty vector; [5]): ≥ 3000 nM; IC50 [1, 6]: < 300 nM
12 | < 300 nM | Cc1nc(C(F)(F)F)ccc1Cn1cc(CNc2nc(C)c3c(n2)N(C)[C@@H](C)C(=O)N3)cn1 [Compound 188, (S)-4,7,8-trimethyl-2-(((1-((2-methyl-6-(trifluoromethyl)pyridin-3-yl)methyl)-1H-pyrazol-4-yl)methyl)amino)-7,8-dihydropteridin-6(5H)-one] | ≥ 3000 nM | –
13 | – | (7S)-2-(((1-((6-fluoro-2-isopropylpyridin-3-yl)methyl)-1H-pyrazol-4-yl)methyl)(methyl)amino)-7-isopropyl-4,8-dimethyl-7,8-dihydropteridin-6(5H)-one [Compound 430] | – | IC50 (Hek293 empty vector; [5]): ≥ 3000 nM; IC50 [1, 6]: < 300 nM
14 | 1000 to 5000 nM | Cc1nc(NCc2cnn(CCC3CCOCC3)c2)nc2c1NC(=O)[C@H](C)N2C [Compound 115, (7S)-4,7,8-trimethyl-2-(((1-(2-(tetrahydro-2H-pyran-4-yl)ethyl)-1H-pyrazol-4-yl)methyl)amino)-7,8-dihydropteridin-6(5H)-one] | ≥ 3000 nM | –
15 | – | Cc1nc(NCc2cnn(Cc3ccc(Cl)nc3)c2)nc2c1NC(=O)[C@H](C(C)C)N2C [Compound 409, (7S)-2-(((1-((6-chloropyridin-3-yl)methyl)-1H-pyrazol-4-yl)methyl)amino)-7-isopropyl-4,8-dimethyl-7,8-dihydropteridin-6(5H)-one] | ≥ 3000 nM | IC50 [1, 3]: < 300 nM
16 | 300 to 1000 nM | Cc1nc(N[C@H]2C[C@@H](Sc3ccc(F)cc3)C2)nc2c1N(C)C(=O)[C@H](C)N2C [Compound 305, (7S)-2-((cis-3-((4-fluorophenyl)thio)cyclobutyl)amino)-4,5,7,8-tetramethyl-7,8-dihydropteridin-6(5H)-one] | ≥ 3000 nM | –
17 | 1000 to 5000 nM | Cc1nc(NCc2cnn(CC(C)(O)c3ccc(F)cc3)c2)nc2c1NC(=O)[C@H](C)N2C (stereo partly drawn) [Compound 128, (7S)-2-(((1-(2-(4-fluorophenyl)-2-hydroxypropyl)-1H-pyrazol-4-yl)methyl)amino)-4,7,8-trimethyl-7,8-dihydropteridin-6(5H)-one] | ≥ 3000 nM | –
18 | < 300 nM | Cc1nc(NCc2cnn(Cc3cccc(C(C)C)c3)c2)nc2c1NC(=O)[C@H](C)N2C [Compound 80, (7S)-2-(((1-(3-isopropylbenzyl)-1H-pyrazol-4-yl)methyl)amino)-4,7,8-trimethyl-7,8-dihydropteridin-6(5H)-one] | ≥ 3000 nM | –
19 | 1000 to 5000 nM | Cc1nc(NCc2cnn(C3CCN(C(=O)c4ccc(F)cc4)CC3)c2)nc2c1NC(=O)[C@H](C)N2C [Compound 125, (7S)-2-(((1-(1-(4-Fluorobenzoyl)piperidin-4-yl)-1H-pyrazol-4-yl)methyl)amino)-4,7,8-trimethyl-7,8-dihydropteridin-6(5H)-one] | ≥ 3000 nM | –
20 | < 300 nM | CCN1c2nc(NCc3cnn(Cc4ccc(C(F)(F)F)nc4)c3)nc(C)c2NC(=O)[C@@H]1C [Compound 395, (7S)-8-Ethyl-4,7-dimethyl-2-(((1-((6-(trifluoromethyl)pyridin-3-yl)methyl)-1H-pyrazol-4-yl)methyl)amino)-7,8-dihydropteridin-6(5H)-one] | ≥ 3000 nM | –
21 | 1000 to 5000 nM | Cc1cnc(C(F)(F)F)nc1-n1cc(CNc2ncc3c(n2)N(C)[C@@H](C)C(=O)N3)cn1 [Compound 164, (7S)-7,8-dimethyl-2-(((1-(5-methyl-2-(trifluoromethyl)pyrimidin-4-yl)-1H-pyrazol-4-yl)methyl)amino)-7,8-dihydropteridin-6(5H)-one] | ≥ 3000 nM | –
22 | 1000 to 5000 nM | CCOc1ccc(CCn2cc(CNc3ncc4c(n3)N(C)[C@@H](C)C(=O)N4)cn2)cc1 [Compound 121, (7S)-2-(((1-(4-ethoxyphenethyl)-1H-pyrazol-4-yl)methyl)amino)-7,8-dimethyl-7,8-dihydropteridin-6(5H)-one] | ≥ 3000 nM | –
